Laboratory results taken from patent US11440922B2, “Heterocyclylmethylidene derivatives and their use as modulators of mGluR5 receptors” (Recordati Industria Chimica e Farmaceutica S.p.A., priority 2017, dated 2022).

Experiments:
[1] = target: human mGluR5 receptor (Homo sapiens (Human), UniProt P41594); assay: Radioligand binding assay at cloned human mGluR5 receptor subtype ([3H]MPEP); details: 4 nM [3H]MPEP, CHO T-REx h-mGluR5 cells, 60 min at 25° C.; read-out: mGlu5 Ki
Excerpt: (§1) Cell lines stably transfected were generated using inducible expression vectors encoding human mGlu5 receptor using the Tetracycline-Regulated Expression system (T-REx™ system, Invitrogen, Life Technologies). Human mGluR5 open reading frame (ORF), comprehensive of the stop codon, were cloned into the pcDNA4/TO/myc-His™ A vector, carrying the TetO2. The insertion site was HindIII-PstI for mGluR5 receptors. The obtained constructs were then transfected into the T-REx CHO™ cell line using the FuGENE protocol (Roche); the CHO T-REx™ cell line stably expresses the Tet repressor (from the pcDNA6/TR plasmid) under the selection of blasticidin, 10 μg/ml. Stable clones were obtained selecting with zeocin 1 mg/ml and maintaining in ULTRA CHO medium (LONZA) supplemented with dialyzed FBS, zeocin, blasticidine, at 37° C., in an atmosphere of 5% CO2. The expression of h-mGluR5 receptors was de-repressed with 1 μg/ml tetracycline for 18 h before binding experimentation, while the expression of h-mGluR5 receptors was derepressed respectively with 3 ng/ml and 10 ng/ml tetracycline for 18 h before calcium fluorescence experimentation.
Radioligand Binding Assay at Cloned Human mGluR5 Receptor Subtype
Affinity at transmembrane glutamate metabotropic cloned human mGluR5 receptor was evaluated according to the methods of Anderson (Anderson et al., J Pharmacol. Exp. Ther., (2002), Vol. 303(3), pp. 1044-51), with some modifications. Human cloned mGluR5 was obtained by re-suspending CHO T-REx h-mGluR5 cells (50 μg/well) in 20 mM HEPES, 2 mM MgCl2, 2 mM CaCl2, pH 7.4, that then were incubated in a final volume of 1 ml for 60 min at 25° C. with 4 nM [^3H]MPEP in the absence or presence of competing drugs. Non-specific binding was determined in the presence of 10 μM MPEP. The incubation was stopped by addition of cold Tris buffer pH 7.4 and rapid filtration through 0.2% polyethyleneimine pretreated Filtermat 1204-401 (Perkin Elmer) filters. The filters were then washed with cold buffer and the radioactivity retained on the filters was counted by liquid scintillation spectrometry (Betaplate 1204 BS-Wallac).
(§2) The inhibition curves of the tested compounds at cloned mGluR5 subtypes were determined by nonlinear regression analysis using software Prism 4.0 (Graphpad, San Diego, Calif.). The IC50 values and pseudo-Hill slope coefficients were estimated by the program. The values for the inhibition constant, Ki, were calculated according to the equation Ki=IC50/(1+[L]/Kd), where [L] is the concentration of radioligand and Kd is the equilibrium dissociation constant of the radioligand-receptor complex (Cheng et al., Biochem. Pharmacol. (1973), Vol. 22, pp. 3099-3108).

[2] = target: human mGlu5 receptor (Homo sapiens (Human), UniProt P41594); assay: Calcium fluorescence measurements, antagonist potency (negative allosteric modulator activity); assay type: cell-based; details: EC80 of quisqualate as agonist, compounds applied 10 minutes before agonist
Excerpt: as §1
Cells were seeded into black-walled, clear-bottom, 96-well plates at a density of 80000 cell/well, in RPMI (without Phenol Red, without L-glutamine; Gibco LifeTechnologies, CA) supplemented with 10% dialyzed FBS. Following 18-h incubation with tetracycline, the cells were loaded with […] Ca^2+-sensitive fluorescent dye Fluo-4/AM (Molecular Probes) in Hanks' balanced saline solution (HBSS, Gibco LifeTechnologies, CA) with […] Hepes (Sigma) and 2.5 mM probenecid (Sigma), for 1 h at 37° C. The cells were washed three times with HBSS to remove extracellular dye. Fluorescence signals were measured by using the fluorescence microplate reader Flexstation III (Molecular Devices) at sampling intervals of 1.5 s for 60 s.
The antagonist potency was determined using the EC80 of the quisqualate used as agonist and the potentiation of mGlu5 activation was determined using the EC20 of the agonist (quisqualate or glutamate). The compounds were applied 10 minutes before the application of the agonist.
The negative allosteric modulator activity (expressed as IC50) and the positive allosteric modulator activity (expressed as EC50) of the compounds of the invention for the mGlu5 receptors is between 0.1 and 1000 nM.
as §2

Sequence of human mGluR5 receptor (P41594 21-1212): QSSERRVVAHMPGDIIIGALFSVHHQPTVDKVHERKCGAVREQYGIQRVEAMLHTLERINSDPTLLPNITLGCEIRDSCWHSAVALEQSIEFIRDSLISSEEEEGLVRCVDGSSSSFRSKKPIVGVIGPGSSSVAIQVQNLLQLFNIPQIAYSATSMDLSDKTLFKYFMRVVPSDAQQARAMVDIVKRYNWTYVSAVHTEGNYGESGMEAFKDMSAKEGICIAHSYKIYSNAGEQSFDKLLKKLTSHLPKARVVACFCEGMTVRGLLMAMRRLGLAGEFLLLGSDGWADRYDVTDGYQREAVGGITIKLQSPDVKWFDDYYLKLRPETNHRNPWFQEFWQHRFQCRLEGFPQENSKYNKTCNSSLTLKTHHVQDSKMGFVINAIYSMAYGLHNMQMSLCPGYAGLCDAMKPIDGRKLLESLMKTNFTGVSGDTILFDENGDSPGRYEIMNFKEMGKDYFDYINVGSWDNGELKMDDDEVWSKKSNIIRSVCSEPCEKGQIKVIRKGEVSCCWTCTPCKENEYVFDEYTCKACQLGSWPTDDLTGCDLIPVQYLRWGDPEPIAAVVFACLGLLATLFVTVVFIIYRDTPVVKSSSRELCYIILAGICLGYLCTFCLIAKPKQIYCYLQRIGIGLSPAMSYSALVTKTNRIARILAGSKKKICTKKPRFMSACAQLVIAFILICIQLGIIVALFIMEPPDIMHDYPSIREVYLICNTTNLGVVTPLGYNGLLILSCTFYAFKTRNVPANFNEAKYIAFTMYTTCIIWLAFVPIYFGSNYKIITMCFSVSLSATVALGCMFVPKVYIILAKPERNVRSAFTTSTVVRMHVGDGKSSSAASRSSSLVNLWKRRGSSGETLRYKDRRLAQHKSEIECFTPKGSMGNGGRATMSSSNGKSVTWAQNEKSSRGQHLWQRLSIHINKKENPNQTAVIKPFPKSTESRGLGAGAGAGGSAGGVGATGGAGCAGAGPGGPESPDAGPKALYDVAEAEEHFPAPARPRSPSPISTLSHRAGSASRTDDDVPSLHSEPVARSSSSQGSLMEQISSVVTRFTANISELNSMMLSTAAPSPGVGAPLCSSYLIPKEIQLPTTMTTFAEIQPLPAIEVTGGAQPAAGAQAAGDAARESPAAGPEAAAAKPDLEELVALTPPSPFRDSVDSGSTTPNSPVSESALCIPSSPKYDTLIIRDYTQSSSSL
Sequence of human mGlu5 receptor (P41594 21-1212): as above

| SMILES | Ki [1] | IC50 [2] |
| --- | --- | --- |
| CCOC(=O)N1CC/C(=C\C#Cc2cccc(Cl)c2)C1(C)C [Example 101, ethyl (3E)-3-[3-(3-chlorophenyl)prop-2-yn-1-ylidene]-2,2-dimethylpyrrolidine-1-carboxylate] | 11.2 nM | 66.3 nM |
| CCOC(=O)N1CC/C(=C\C#Cc2cc(F)cc(C#N)c2)C(C)(C)C1 [Example 32, ethyl (4E)-4-[3-(3-cyano-5-fluorophenyl)prop-2-yn-1-ylidene]-3,3-dimethylpiperidine-1-carboxylate] | 16.1 nM | 60 nM |
| CCOC(=O)N1CC/C(=C\C#Cc2cccc(C(F)(F)F)c2)C(C)(C)C1 [Example 22, ethyl (4E)-3,3-dimethyl-4-{3-[3-(trifluoromethyl)phenyl]prop-2-yn-1-ylidene}piperidine-1-carboxylate] | 1.9 nM | 66.3 nM |

Continued, values first:

| Ki [1] | IC50 [2] | SMILES |
| --- | --- | --- |
| 28.6 nM | 31.8 nM | CCOC(=O)N1CC/C(=C\C#Cc2cc(OC)ccn2)C(C)(C)C1 [Example 25, ethyl (4E)-4-[3-(4-methoxypyridin-2-yl)prop-2-yn-1-ylidene]-3,3-dimethylpiperidine-1-carboxylate] |
| 0.64 nM | 8.6 nM | CCOC(=O)N1CC/C(=C\C#Cc2cccc(C#N)c2)C(C)(C)C1 [Example 27, ethyl (4E)-4-[3-(3-cyanophenyl)prop-2-yn-1-ylidene]-3,3-dimethylpiperidine-1-carboxylate] |
| 16.3 nM | 31.6 nM | CCOC(=O)N1CC/C(=C\C#Cc2cc(Cl)ccn2)C1(C)C [Example 91, ethyl (3E)-3-[3-(4-chloropyridin-2-yl)prop-2-yn-1-ylidene]-2,2-dimethylpyrrolidine-1-carboxylate] |
